What was measured:
[1] = test system: atrial refractory period during rapid atrial pacing; details: in vivo; cited from earlier work
[2] = test system: patients with left ventricular dysfunction; test: Retrospective analysis of Montreal Heart Institute patients randomized in SOLVD: development of atrial fibrillation, enalapril versus placebo; assay type: in vivo, human
Text: The patients of the Montreal Heart Institute who were enrolled in the SOLVD trials constituted the study population. SOLVD was a multicenter, double-blinded, randomized, placebo-controlled trial which evaluated the effect of the ACEi enalapril on survival in patients with left ventricular (LV) dysfunction (ejection fraction≦35%).^12,13 The design of the study has been reported previously.^13 Briefly, from June 1986 to August 1991, 4228 patients with asymptomatic or mildly symptomatic (not requiring treatment with digitalis, diuretics or vasodilators for heart failure at study entry) LV dysfunction (LVEF≦0.35) were included in the prevention trial and 2569 patients with overt congestive HF in the treatment trial.^14 Patients were randomized to enalapril (5-20 mg/day) or placebo. Exclusion criteria included: age>80 years, unstable angina, myocardial infarction in the previous month, severe pulmonary disease, renal insufficiency (creatinine level>[…]), current ACEi use or intolerance to ACEi. Follow-up visits were scheduled 2 and 6 weeks after randomization and every 4 months until the end of the study, for a mean follow-up of 3.4 and 3.1 years for the treatment and prevention trials, respectively.
Baseline characteristics, past medical history and drug therapy at the time of enrolment were obtained from the SOLVD databases. Serial electrocardiograms (ECG) were not collected specifically for the SOLVD trials. However, the routine clinical follow-up of patients at our institution usually included a 12-lead ECG. Thus, the medical file of each patient was carefully reviewed and a single experienced cardiologist, blinded to treatment allocation, interpreted every ECG.
AF was defined as rapid oscillations or fibrillatory waves that vary in size, shape and timing, associated with an irregular, frequently rapid ventricular response. For the purposes of the study, paroxysmal AF was defined as episodes in which the patient reverted to sinus rhythm spontaneously, with medical therapy orwith a single cardioversion, whereas patients who remained in AF despite changes in medical therapy and/or cardioversion were defined as persistent AF. Episodes occurring during a 24-hour Holter monitoring were also considered. The end-points were the development and time to first occurrence of AF on either one 12-lead ECG and/or a 24-hour Holter monitoring recorded during any available follow-up visits (including research, outpatient clinic or emergency room visits). Participants with significant supraventricular arrhythmia on the baseline ECG (AF or flutter) were excluded. Patients with a history of arrhythmia (either supraventricular or ventricular) but who were in sinus rhythm on the ECG at the time of randomization were included.
The baseline characteristics of the two groups were compared using student t-test for continuous variables and chi-square test for categorical variables. The incidence of AF between the two groups was compared with the chi-square test. Time to the first occurrence of AF during the follow-up was analyzed with Kaplan-Meier curves and compared with the log-rank test. To analyze the effect of enalapril on development of AF, a Cox regression analysis was used to take into account the effect of potential confounding baseline variables (age, sex, NYHA class, history of supraventricular or ventricular arrhythmia, ischemic etiology, diabetes and ejection fraction) and time-dependent variables (systolic blood pressure, diastolic blood pressure, pulse pressure, serum potassium and drug therapy). Cox proportional-hazard models were performed for each variable with treatment (enalapril) forced in all models. Variables with a p-value≦0.2 were included in a multivariate Cox proportional hazard model.
Subgroup analysis was conducted with chi-square test. Preliminary assumptions were verified prior to all analysis. A p-value≦0.05 was considered statistically significant. […]

[3] = test system: animals with HF induced by rapid ventricular pacing; details: given at the onset of pacing, animals followed for 5 weeks; cited from earlier work
[4] = test system: patients with persistent AF; details: started 3 weeks before electrical cardioversion and combined with amiodarone; cited from earlier work
[5] = test system: patients shortly after an acute myocardial infarction with depressed LV function; details: trandolapril versus placebo, 2-4 years of follow-up in TRACE; cited from earlier work
[6] = patients with AF in enalapril group, n = 10

In the case of `C[C@H](CS)C(=O)N1CCC[C@H]1C(=O)O` [captopril], the “shortening of the atrial refractory period during rapid atrial pacing” value [1] is given as “prevented”.

In the case of `CCOC(=O)[C@H](CCc1ccccc1)N[C@@H](C)C(=O)N1CCC[C@H]1C(=O)O` [enalapril], the “patients presenting ≥1 episode of AF” value ([2]; 2.9 years of follow-up, enalapril group n = 186, 5-20 mg/day, placebo 45) is reported as 10 patients, the “patients presenting ≥1 episode of AF (percentage)” value ([2]; 2.9 years of follow-up, enalapril group n = 186, placebo 24%, p<0.001) is reported as 5.4% and the “probability of remaining in sinus rhythm during follow-up” value ([2]; Kaplan-Meier, enalapril versus placebo, p<0.0001, FIG. 1) is reported as “significantly higher”. The “Hazard ratio for incidence of AF, Cox multivariate analysis” value ([2]; allocation to enalapril, 95% CI 0.11-0.44, p<0.0001) was 0.22, the “risk of developing AF in patients with LV dysfunction” value ([2]; chronic ACEi therapy with enalapril) was “markedly reduces” and the “absolute risk reduction of AF” value ([2]; enalapril versus placebo, 2.9 years of follow-up) was 18.6%. The “patients developing AF (percentage), patients with a history of supraventricular arrhythmia excluded” value ([2]; n=21 excluded, placebo 23%, p<0.0001) was 4.5%, the “patients developing AF, patients with a history of supraventricular arrhythmia excluded” value ([2]; n=21 excluded, placebo 40 patients) was 8 patients and the “AF Detection: 12-leads ECG (number)” value [2, 6] was 10. The “AF Detection: 12-leads ECG (percentage)” value [2, 6] was 100%, the “AF Detection: Holter monitoring (number)” value [2, 6] was 0 (0%) and the “AF Detection: Holter monitoring (percentage)” value [2, 6] was 0 (0%). For the same compound, the “AF Requiring: electrical cardioversion (number)” value [2, 6] was 1, the “AF Requiring: electrical cardioversion (percentage)” value [2, 6] was 10% and the “AF Requiring: hospitalization (number)” value [2, 6] was 8. The “AF Requiring: hospitalization (percentage)” value [2, 6] was 80%, the “Paroxysmal AF (number)” value [2, 6] was 8 and the “Paroxysmal AF (percentage)” value [2, 6] was 80%. The “Persistent AF (number)” value [2, 6] was 2, the “Persistent AF (percentage)” value [2, 6] was 20% and the “patients developing AF, SOLVD prevention arm” value ([2]; prevention arm (251 patients), placebo 31 patients) was 4 patients. For the same compound, the “patients developing AF (percentage), SOLVD prevention arm” value ([2]; prevention arm, placebo 24.6%, p<0.0001) was 3.2%, the “patients with CHF needed to be treated to prevent one episode of AF” value ([2]; treated for 2.9 years) was 5 patients and the “patients developing AF, SOLVD treatment arm” value ([2]; treatment arm (123 patients), placebo 14) was 6 patients. The “patients developing AF (percentage), SOLVD treatment arm” value ([2]; treatment arm, placebo 22.6%, P=0.055) was 9.8%, the atrial fibrosis [3] was “significant reduction” and the “atrial structural changes in HF induced by rapid ventricular pacing” value [3] was “attenuated”. For the same compound, the “vulnerability of the animals to AF” value [3] was “decreased vulnerability”.

In the case of `CCOc1nc2cccc(C(=O)O)c2n1Cc1ccc(-c2ccccc2-c2nnn[nH]2)cc1` [candesartan], the “shortening of the atrial refractory period during rapid atrial pacing” value [1] is listed as “prevented”.

For `CCCCC1=NC2(CCCC2)C(=O)N1Cc1ccc(-c2ccccc2-c2nnn[nH]2)cc1` [irbesartan], the “effect on AF recurrence” value [4] is given as “beneficial effect”.

For `CCOC(=O)[C@H](CCc1ccccc1)N[C@@H](C)C(=O)N1[C@H](C(=O)O)C[C@H]2CCCC[C@@H]21` [trandolapril], the “absolute risk reduction on the incidence of AF” value [5] is listed as 2.5%.
